Experiments:
[1] = Cell Titer-fluor cell activity assay in HCV-1b replicon cells (CC50); format: cell-based
Method in brief: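 Con1 genotype 1b replicon cells (E1202G, T1280I, K1846T adaptive mutations), 8000 cells/well, exposed to 6-point 5-fold dilutions from 100, 10 or 1 nM top concentration in 0.5% DMSO, duplicate wells, 3 days at 37 °C. Viability read by Cell Titer-fluor (Ex 405/Em 515 nm) after 30 min; CC50 from nonlinear fit of inhibition %.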

[2] = system: HCV genotype 1a (HCV-1a) replicon cells; test: HCV genotype 1a replicon luciferase assay (EC50); format: cell-based, hepatitis C virus genotype 1a (H77 clone); details: 3 days, luciferase (Bright-Glo)
Method in brief: (§1)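 H77-derived 1a (K1691R, K2040R, S2204I) or Con1-derived 1b (E1202G, T1280I, K1846T) luciferase replicon cells, 8000/well, exposed 3 days at 37° C. to 6-point 5-fold dilutions (top 100, 10 or 1 nM; 0.5% DMSO), in duplicate. Bright-Glo luminescence read; EC50 from nonlinear fit of % inhibition.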

[3] = system: HCV genotype 1b (HCV-1b) replicon cells; test: HCV genotype 1b replicon luciferase assay (EC50); format: cell-based, hepatitis C virus genotype 1b (Con1 clone); details: 3 days, luciferase (Bright-Glo)
Method in brief: as §1

Compound	CC50 at 3 days [1]	EC50 ([2]; Hepatitis C virus, 72 h)	EC50 ([3]; Hepatitis C virus, 72 h)	EC50 [3]	EC50 [2]
COC(=O)N[C@H](C(=O)N1CCC[C@H]1c1ncc(-c2ccc(-c3ccc(-c4cnc(C5C6CCC(C6)[C@H]5C(=O)N(C)c5ccccn5)[nH]4)cc3)cc2)[nH]1)[C@@H](C)OC (stereo partly drawn) [AA_247_B]	> 1 nM	1 to 10 nM	0.001 to 0.1 nM		
COC(=O)NC(C(=O)N1CCCC1c1[nH]c(-c2ccc(-c3ccc(-c4cnc([C@@H]5CCCN5C(=O)[C@@H](NC(=O)OC)C(C)C)[nH]4)cc3)cc2)c2c1CCCC2)C1CCOC1 (stereo partly drawn) [AG_027]	> 10 nM	10 to 100 nM	0.101 to 1 nM		
COC(=O)N[C@H](C(=O)N1CCC[C@H]1c1ncc(-c2ccc(-c3ccc(-c4cnc([C@@H]5[C@H]6CC[C@H](C6)[C@H]5C(=O)N[C@H](C)c5cnccn5)[nH]4)cc3)cc2)[nH]1)C(C)C [AA_270_ENDOA2_B]	> 1 nM	1 to 10 nM	0.001 to 0.1 nM		
COC(=O)N[C@H](C(=O)N1CCC[C@H]1c1ncc(-c2ccc(-c3ccc(-c4cnc([C@@H]5[C@H]6CC[C@H](C6)[C@H]5C(=O)NCc5cccnc5)[nH]4)cc3)cc2)[nH]1)C(C)C [AA_162_ENDOA2]	> 1 nM	0.101 to 1 nM	0.001 to 0.1 nM		
COC(=O)N[C@H](C(=O)N1CCC[C@H]1c1ncc(-c2ccc(-c3ccc(-c4cnc([C@H]5C6CCC(C6)[C@@H]5C(=O)NC(CO)c5ccccn5)[nH]4)cc3)cc2)[nH]1)C(C)C (stereo partly drawn) [AA_243_A]	> 1 nM	10 to 100 nM	0.001 to 0.1 nM		
COC(=O)N[C@H](C(=O)N1CCC[C@H]1c1ncc(-c2ccc(-c3ccc(-c4cnc(C5C6CCC(C6)[C@H]5C(=O)NCc5cccnc5F)[nH]4)cc3)cc2)[nH]1)[C@@H](C)OC (stereo partly drawn) [AA_252_B]	> 1 nM	1 to 10 nM	0.001 to 0.1 nM		
COC(=O)N[C@H](C(=O)N1CCC[C@H]1c1ncc(-c2ccc(-c3ccc(-c4cnc([C@H]5C6CCC(C6)[C@@H]5C(=O)NCc5cccnc5OC)[nH]4)cc3)cc2)[nH]1)C(C)C (stereo partly drawn) [AA_203_A]	> 1 nM	1 to 10 nM	0.001 to 0.1 nM		
COC(=O)N[C@H](C(=O)N1CCC[C@H]1c1ncc(-c2ccc(-c3ccc(-c4cnc(C5C6CCC(C6)[C@H]5C(=O)NCc5cccnc5)[nH]4)cc3)cc2)[nH]1)C(C)C (stereo partly drawn) [AA_162_A]	> 1 nM	1 to 10 nM	0.001 to 0.1 nM		
COC(=O)N[C@H](C(=O)N1CCC[C@H]1c1ncc(-c2ccc(-c3ccc(-c4cnc([C@H]5C6CCC(C6)[C@@H]5C(=O)NCc5ccccc5)[nH]4)cc3)cc2)[nH]1)C(C)C (stereo partly drawn) [AA_207_A]	> 1 nM	1 to 10 nM	0.001 to 0.1 nM		
COC(=O)N[C@@H](CO)C(=O)N1CCC[C@H]1c1ncc(-c2ccc(-c3ccc(-c4ccc([C@@H]5CCCN5C(=O)[C@@H](NC(=O)OC)C(C)OC)[nH]4)cc3)cc2)[nH]1 (stereo partly drawn) [AG_119]	> 1 nM	0.101 to 1 nM	0.001 to 0.1 nM		
COC(=O)N[C@H](C(=O)N1CCCC1c1ccc(-c2ccc(-c3ccc(-c4ccc(C5CCCN5C(=O)[C@@H](NC(=O)OC)C(C)C)[nH]4)cc3)cc2)[nH]1)C(C)C (stereo partly drawn) [AG_011]	> 1 nM	10 to 100 nM	0.001 to 0.1 nM		
COC(=O)N[C@H](C(=O)N1CCC[C@H]1c1[nH]c(-c2ccc(-c3ccc(-c4cnc([C@@H]5CCCN5C(=O)[C@@H](NC(=O)OC)[C@@H](C)OC)[nH]4)cc3)cc2)c2c1COC2)C(C)C [AG_077]	> 5 nM	0.001 to 0.1 nM	0.001 to 0.1 nM		
COC(=O)N[C@H](C(=O)N1CCC[C@H]1c1ncc(-c2ccc(-c3ccc(-c4cc(Cl)c([C@@H]5CCCN5C(=O)[C@@H](NC(=O)OC)[C@@H](C)OC)[nH]4)cc3)cc2)[nH]1)[C@@H](C)OC [AG_094]	> 1 nM	0.101 to 1 nM	0.001 to 0.1 nM		
COC(=O)N[C@H](C(=O)N1CCC[C@H]1c1ncc(-c2ccc(-c3ccc(-c4cnc([C@@H]5C6CCC(C6)[C@H]5C(=O)NCc5cccnc5OC)[nH]4)cc3)cc2)[nH]1)C(C)C (stereo partly drawn) [AA_203_B]	> 1 nM	1 to 10 nM	0.001 to 0.1 nM		
COC(=O)N[C@H](C(=O)N1CCC[C@H]1c1ncc(-c2ccc(-c3ccc(-c4cnc([C@H]5C6CCC(C6)[C@@H]5C(=O)NCc5ccc(C(F)(F)F)nc5)[nH]4)cc3)cc2)[nH]1)C(C)C (stereo partly drawn) [AA_232_A]	> 1 nM	1 to 10 nM	0.001 to 0.1 nM		
COC(=O)N[C@H](C(=O)N1CCC[C@H]1c1ncc(-c2ccc(-c3ccc(-c4cnc([C@@H]5[C@H]6CC[C@H](C6)[C@H]5C(=O)N(C)c5ccccn5)[nH]4)cc3)cc2)[nH]1)C(C)C [AA_195_ENDOA2]	> 1 nM	0.101 to 1 nM	0.001 to 0.1 nM		
COC(=O)N[C@H](C(=O)N1CCC[C@H]1c1ncc(-c2ccc(-c3ccc(-c4cnc([C@H]5CCCC[C@@H]5C(=O)N(NC(=O)OC)C(C)C)[nH]4)cc3)cc2)[nH]1)C(C)C [AA_091_B]	> 10 nM	10 to 100 nM	0.101 to 1 nM		

Compound	CC50 at 3 days [1]	EC50 ([2]; Hepatitis C virus, 72 h)	EC50 ([3]; Hepatitis C virus, 72 h)	EC50 [3]	EC50 [2]
COC(=O)N[C@H](C(=O)N1CCC[C@H]1c1[nH]c(-c2ccc(-c3ccc(-c4cnc([C@@H]5CCCN5C(=O)[C@@H](NC(=O)OC)[C@@H](C)O)[nH]4)cc3)cc2)c2c1CCC2)C(C)C [AG_090]	> 1 nM	1 to 10 nM	0.001 to 0.1 nM		
COC(=O)N[C@H](C(=O)N1CCC[C@H]1c1ncc(-c2ccc(-c3ccc(-c4cnc(C5C6CCC(C6)[C@@H]5C(=O)NCc5cccc(N)c5)[nH]4)cc3)cc2)[nH]1)[C@@H](C)OC (stereo partly drawn) [AA_226]	> 1 nM	10 to 100 nM	0.001 to 0.1 nM		
COC(=O)N[C@H](C(=O)N1CCCC1c1ncc(-c2ccc(-c3ccc(-c4[nH]c(C5CCCN5C(=O)[C@@H](NC(=O)OC)C(C)C)c5c4CCCC5)cc3)cc2)[nH]1)C(C)C (stereo partly drawn) [AG_014]	> 10 nM	10 to 100 nM	0.101 to 1 nM		
COC(=O)N[C@H](C(=O)N1CCC[C@H]1c1ncc(-c2ccc(-c3ccc(-c4cnc([C@H]5C6CCC(C6)[C@@H]5C(=O)NNc5nccnc5Cl)[nH]4)cc3)cc2)[nH]1)C(C)C (stereo partly drawn) [AA_244_A]	> 1 nM	10 to 100 nM	0.101 to 1 nM		
COC(=O)N[C@H](C(=O)N1CCC[C@H]1c1ncc(-c2ccc(-c3ccc(-c4cnc(C5C6CCC(C6)[C@H]5C(=O)NNc5nccnc5Cl)[nH]4)cc3)cc2)[nH]1)[C@@H](C)OC (stereo partly drawn) [AA_250_B]	> 1 nM	10 to 100 nM	1 to 10 nM		
COC(=O)N[C@H](C(=O)N1CCC[C@H]1c1ncc(-c2ccc(-c3ccc(-c4cnc(C5C6CCC(C6)[C@@H]5C(=O)N[C@H](C)c5cccnc5)[nH]4)cc3)cc2)[nH]1)[C@@H](C)OC (single isomer, unassigned) [AA_253_A]	> 1 nM	10 to 100 nM		0.101 to 1 nM	
COC(=O)N[C@H](C(=O)N1CCCC[C@H]1c1ncc(-c2ccc(-c3ccc(-c4[nH]c([C@@H]5CCCN5C(=O)[C@@H](NC(=O)OC)C(C)OC)c5c4COC5)cc3)cc2)[nH]1)C(C)C (stereo partly drawn) [AG_123]	> 1 nM	1 to 10 nM	0.001 to 0.1 nM		
COC(=O)N[C@H](C(=O)N1CCC[C@H]1c1cnc(-c2ccc(-c3ccc(-c4ncc(C5C6CCC(C6)[C@H]5C(=O)N(NC(=O)OC)C(C)C)[nH]4)cc3)cc2OC)[nH]1)C(C)C (stereo partly drawn) [AA_166_A]	> 5 nM	10 to 100 nM	0.001 to 0.1 nM		
COC(=O)N[C@H](C(=O)N1CCC[C@H]1c1ncc(-c2ccc(-c3ccc(-c4cnc(C5C6CCC(C6)[C@H]5C(=O)NCc5ccc(C(F)(F)F)nc5)[nH]4)cc3)cc2)[nH]1)[C@@H](C)OC (stereo partly drawn) [AA_264_B]	> 1 nM	10 to 100 nM	0.101 to 1 nM		
COC(=O)N[C@H](C(=O)N1CCC[C@H]1c1ccc(-c2ccc(-c3ccc(-c4cnc([C@@H]5CCCN5C(=O)[C@@H](NC(=O)OC)[C@@H](C)OC)[nH]4)cc3)cc2)[nH]1)[C@@H](C)OC [AG_118_B]	> 1 nM	1 to 10 nM	0.001 to 0.1 nM		
COC(=O)N[C@H](C(=O)N1CCCC1c1[nH]c(-c2ccc(-c3ccc(-c4cnc([C@@H]5CCCN5C(=O)[C@@H](NC(=O)OC)C(C)C)[nH]4)cc3)cc2)c2c1COC2)C(C)C (stereo partly drawn) [AG_060]	> 1 nM	0.101 to 1 nM	0.001 to 0.1 nM		
COC(=O)N[C@H](C(=O)N1CCC[C@H]1c1ncc(-c2ccc(-c3ccc(-c4cnc(C5C6CCC(C6)[C@H]5C(=O)N[C@H](c5cccnc5)C(C)C)[nH]4)cc3)cc2)[nH]1)[C@@H](C)OC (stereo partly drawn) [AA_267_B]	> 1 nM		0.101 to 1 nM		1 to 10 nM
COC(=O)N[C@H](C(=O)N1CCC[C@H]1c1ncc(-c2ccc(-c3ccc(-c4cnc([C@@H]5[C@H]6CC[C@H](C6)[C@H]5C(=O)NN(C(=O)OC)C(C)C)[nH]4)cc3)cc2)[nH]1)C(C)C [AA_299_ENDOA2]	> 1 nM	10 to 100 nM	0.001 to 0.1 nM		
COC(=O)N[C@H](C(=O)N1CCC[C@H]1c1ncc(-c2ccc(-c3ccc(-c4cnc(C5C6CCC(C6)[C@@H]5C(=O)N(NC(=O)OC)C5CCOCC5)[nH]4)cc3)cc2)[nH]1)C(C)C (stereo partly drawn) [AA_158]	> 1 nM	1 to 10 nM	0.001 to 0.1 nM		
COC(=O)N[C@H](C(=O)N1CCC[C@H]1c1ncc(-c2ccc(-c3ccc(-c4cnc(C5C6CCC(C6)[C@@H]5C(=O)N(C)c5ccccn5)[nH]4)cc3)cc2)[nH]1)[C@@H](C)OC (stereo partly drawn) [AA_247_A]	> 1 nM	0.101 to 1 nM	0.001 to 0.1 nM		
COC(=O)N[C@H](C(=O)N1CC2(C[C@H]1c1ncc(-c3ccc(-c4ccc(-c5cnc(C6C7CCC(C7)[C@H]6C(=O)NCc6cccnc6)[nH]5)cc4)cc3)[nH]1)OCCO2)C(C)C (stereo partly drawn) [AA_192_B]	> 1 nM	1 to 10 nM	0.001 to 0.1 nM		
